Reference: patent publication US20230263798A1, “COMPOSITIONS AND METHODS FOR TREATING THERAPY RESISTANT CANCER” (The General Hospital Corporation, priority 2020, published 2023)

Columns and labels:
METTL3 [1] = experiment: Western blot analysis of METTL3 in MCF7 cells; type: cell-based; conditions: MCF7 cells, agent alone vs untreated/buffer, Western blot
From the text: (§1) The Western blot includes samples with control shRNA or shMETTL3. […] Tubulin and Histone serve as Western blot loading controls. Data are average of 3 replicates +/-SEM. See also FIGS. 2A-2G.
(§2) Data are average of 3 replicates +/-SEM. Tubulin serves as the loading control.
(§3) Tubulin and Histone serve as Western blot loading controls. Data are average of 3 replicates +/-SEM. See also FIGS. 4A-4H.
(§4) Actin and Tubulin are loading controls for Western blots. Data are average of 3 replicates +/-SEM.
(§5) FIGS. 8C and 8D show Western blot analysis of PARP1, phospho-elF2α, METTL3 with doxorubicin or Sal003 treatment. […] 500 nM Doxorubicin treated MCF7 cells were co-treated with 6uM of Enzastaurin or DMSO buffer. […] Data are average of 3 replicates +/-SEM.
(§6) To determine the mechanisms of specific mRNA expression in chemosurviving cancer cells, we examined RNA binding regulators in chemosurviving MCF7 breast cancer cells, isolated after doxorubicin chemotherapy treatment.

METTL3 [2] = experiment: Western blot of METTL3 in BT549 cells; type: cell-based; conditions: over time of treatment
phospho-elF2α [3] = experiment: Western blot of elF2α phosphorylation in MCF7 cells; type: cell-based; conditions: MCF7 cells, agent alone, Western blot
Protocol: as §5

phospho-elF2α [4] = experiment: Western blot of elF2α phosphorylation in BT549 cells; type: cell-based; conditions: over time of treatment
Protocol: as §2
as §6, with “treatment. […] The increase observed is transient and is not observed at 48 h of treatment (FIG. 2A).” for “treatment.”

m6A on RNA = experiment: m6A on ribosomal RNA depleted RNA (dot blot, 2D-TLC); type: cell-based; conditions: ribosomal RNA depleted RNA from treated vs untreated MCF7 cells; dot blot or 2D-TLC
Protocol: The Western blot includes samples with control shRNA or shMETTL3. […] Tubulin and Histone serve as Western blot loading controls. Data are average of 3 replicates +/-SEM. See also FIGS. 2A-2G. […]
To test whether the increased m6A modification enzymes lead to increased m6A modification on RNA, ribosomal RNA depleted RNA from doxorubicin treated cells compared to untreated cells by dot blot analyses was tested. […] Consistent with decreased METTL3 upon knockdown, the dot blot signal is depleted when METTL3 is knocked down (FIG. 1B). Second, RNA from doxorubicin treated cells for m6A by two-dimensional-thin layer chromatography separation (2D-TLC) was performed (H. Grosjean, G. Keith, L. Droogmans, Detection and quantification of modified nucleotides in RNA using thin-layer chromatography. Methods in molecular biology (Clifton, N.J.) 265, 357-391 (2004)).

METTL3 [5] = experiment: Western blot of METTL3 in breast cancer patient samples grown in 3D cultures; type: cell-based; conditions: hormone positive breast cancer patient samples grown as tumor spheres
From the text: as §1
As METTL3 increases in chemosurviving cells and increases m6A on RNA, we tested whether METTL3 increase is needed for chemosurvival by depleting METTL3 or overexpressing METTL3 or a catalytically defective METTL3 (CD-M3) mutant and then tested these cells for doxorubicin survival.

METTL3 [6] = experiment: Western blot of METTL3 in patient-derived xenografts treated in vivo; conditions: hormone positive breast cancer patient derived xenografts, 2-1 0 mg/kg doxorubicin in vivo
METTL3 mRNA = METTL3 mRNA level and translation (qPCR, polysome fractionation, nascent amino acid labeling); type: cell-based
Protocol: as §3, §4
To verify that the increase in METTL3 was at the translation level, polysome analysis was conducted first. […] We next verified increased polysome association of METTL3 mRNA with Y10B antibody immunoprecipitation in doxorubicin treated and in Sal003 cells compared to buffer treated cells (FIGS. 3I and 4F).

PARP1 = experiment: Western blot analysis of PARP1; type: cell-based; conditions: treated cells
Protocol: as §5
Consistently, doxorubicin treated cells are sensitive to PARP inhibitors, such as Talazoparib (BMN-673, FIG. 8B).

METTL3 5′UTR = experiment: Firefly luciferase reporter bearing the 5′UTR of METTL3; type: cell-based; conditions: doxorubicin treated vs untreated cells, normalized to Renilla
From the text: FIGS. 5A-5I show HuR and associated translation initiation factors promote METTL3 translation in doxorubicin resistant cells. […] Tubulin is the loading control for Western blots. Data are average of 3 replicates +/-SEM. See also FIGS. 6A-6K.
To test if METTL3 mRNA encodes for cis-acting elements that direct its translation upregulation in doxorubicin-treated cells, we constructed Luciferase reporters bearing METTL3 mRNA 5′UTR and 3′UTR, or their reverse sequences or vector sequence as controls. We tested these reporters and their controls in untreated and doxorubicin treated cells. […] Importantly, RNA levels of the 5′UTR reporter remained unaffected between doxorubicin treated compared to untreated cells, and compared to reverse or vector reporters, indicating translation control.

HuR = experiment: Western blot of HuR; type: cell-based; conditions: over time of doxorubicin treatment
From the text: Western blot is shown of other RNA binding proteins that increase in mass spectrometry data. […] FIGS. 6J and 6K show Hexim, PPM1G and HuR increase in chemotreated patient samples and on doxorubicin treatment.

METTL14 = experiment: Western blot of METTL14 in breast cancer patient samples grown as tumor spheres; type: cell-based

METTL3 5′UTR luciferase reporter translation (METTL3 5′UTR): enhanced translation
Structure (SMILES): COc1cccc2c1C(=O)c1c(O)c3c(c(O)c1C2=O)C[C@@](O)(C(=O)CO)C[C@@H]3O[C@H]1C[C@H](N)[C@H](O)[C@H](C)O1 [doxorubicin]
METTL3 level (METTL3 [1]): increases | METTL3 level (METTL3 [2]): transient increase | elF2α phosphorylation (phospho-elF2α [3]): phosphorylated over time | elF2α phosphorylation (phospho-elF2α [4]): transient increase | m6A on RNA (m6A on RNA): more m6A modified RNA | METTL3 level (METTL3 [5]): increased | METTL3 level (METTL3 [6]): increases | labeled (newly translated) METTL3, nascent translation assay (METTL3 mRNA; Click-it Puro labeling, METTL3 immunoprecipitation, treated vs untreated): increase | METTL3 and METTL14 RNA levels by qPCR (METTL3 mRNA; doxorubicin treated vs untreated cells): no increase | METTL3 mRNA on polysomes compared to monosomes (METTL3 mRNA; treated vs buffer treated cells, polysome fractionation and qPCR): increased | PARP1 level (PARP1): increases | HuR level (HuR): increase | METTL14 level (METTL14): Increase
